Data as given in the supplement of paper PMC10307832.

Key:
Venetoclax + Trametinib = compound: CC1(C)CCC(CN2CCN(c3ccc(C(=O)NS(=O)(=O)c4ccc(NCC5CCOCC5)c([N+](=O)[O-])c4)c(Oc4cnc5[nH]ccc5c4)c3)CC2)=C(c2ccc(Cl)cc2)C1 [Venetoclax] + CC(=O)Nc1cccc(-n2c(=O)n(C3CC3)c(=O)c3c(Nc4ccc(I)cc4F)n(C)c(=O)c(C)c32)c1 [Trametinib] (partner 0.02 µM); test: relative viability (nuclei count vs DMSO), 5 days (fraction); higher = more cells survive
Outline: (§1)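 A single step with final 0.05% Triton X-100, 1% formaldehyde and 1 ug/ml Hoechst fixed the cells and stained nuclei 5 days after treatment. Lung cancer cell lines in 1536-well plates had been treated by pin tool the day after seeding with one drug alone or a fixed anchor-drug dose plus five library-drug doses (not always all listed) in √10 steps, and nuclei were counted on 4× images. Relative viability is the ratio of nuclei in treated wells to nuclei in vehicle wells, taken as the median of duplicate plates.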

Venetoclax + AZD7762 = compound: CC1(C)CCC(CN2CCN(c3ccc(C(=O)NS(=O)(=O)c4ccc(NCC5CCOCC5)c([N+](=O)[O-])c4)c(Oc4cnc5[nH]ccc5c4)c3)CC2)=C(c2ccc(Cl)cc2)C1 [Venetoclax] + NC(=O)Nc1cc(-c2cccc(F)c2)sc1C(=O)N[C@H]1CCCNC1 [AZD7762] (partner 0.2 µM); test: as above
Outline: as §1

Row | Cell Line | relative viability (Venetoclax + Trametinib; first compound 0.01 µM) | relative viability (Venetoclax + Trametinib; first compound 0.03162 µM) | relative viability (Venetoclax + Trametinib; first compound 0.1 µM) | relative viability (Venetoclax + Trametinib; first compound 0.3162 µM) | relative viability (Venetoclax + Trametinib; first compound 1 µM) | relative viability (Venetoclax + AZD7762; first compound 0.01 µM) | relative viability (Venetoclax + AZD7762; first compound 0.03162 µM) | relative viability (Venetoclax + AZD7762; first compound 0.1 µM) | relative viability (Venetoclax + AZD7762; first compound 0.3162 µM) | relative viability (Venetoclax + AZD7762; first compound 1 µM)
1 | LXF-289 | 0.716 | 0.692 | 0.629 | 0.625 | 0.575 | 1.19 | 1.06 | 1.02 | 1.06 | 1.01
2 | NCI-H23 | 0.441 | 0.427 | 0.365 | 0.346 | 0.346 | 0.198 | 0.268 | 0.279 | 0.262 | 0.199
3 | NCI-H322M | 0.528 | 0.519 | 0.436 | 0.534 | 0.562 | 0.606 | 0.608 | 0.424 | 0.591 | 0.649
4 | NCI-H358 | 0.117 | 0.14 | 0.106 | 0.126 | 0.135 | 0.338 | 0.527 | 0.556 | 0.714 | 0.558
5 | NCI-H441 | 0.49 | 0.494 | 0.506 | 0.439 | 0.5 | 1.14 | 1.27 | 1.05 | 1.4 | 1.09
6 | NCI-H460 | 0.171 | 0.229 | 0.131 | 0.153 | 0.131 | 0.754 | 0.653 | 0.619 | 0.669 | 0.566
7 | NCI-H522 | 0.716 | 0.747 | 0.674 | 0.728 | 0.655 | 1.01 | 0.769 | 0.85 | 0.923 | 0.689
8 | NCI-H596 | 0.731 | 0.746 | 0.851 | 0.951 | 0.755 | 1.12 | 0.975 | 1.27 | 1.12 | 1.2
9 | NCI-H647 | 0.463 | 0.428 | 0.423 | 0.399 | 0.433 | 0.402 | 0.429 | 0.364 | 0.539 | 0.394
10 | NCI-H650 | 0.875 | 0.995 | 0.892 | 0.892 | 0.963 | 0.986 | 1.1 | 0.872 | 1.22 | 0.899
11 | NCI-H727 | 0.363 | 0.392 | 0.406 | 0.412 | 0.386 | 0.592 | 0.769 | 0.423 | 0.648 | 0.604
12 | NCI-H838 | 0.559 | 0.522 | 0.524 | 0.491 | 0.488 | 0.93 | 0.999 | 0.877 | 0.923 | 0.837
13 | NCI-H1355 | 0.455 | 0.46 | 0.435 | 0.432 | 0.44 | 0.723 | 0.733 | 0.705 | 0.716 | 0.652
14 | NCI-H1395 | 1.05 | 0.944 | 1.02 | 1.06 | 1.05 | 0.402 | 0.442 | 0.392 | 0.434 | 0.405
15 | NCI-H1437 | 0.5 | 0.52 | 0.529 | 0.463 | 0.435 | 1.14 | 1.14 | 1.11 | 1.08 | 1.07
16 | NCI-H1648 |  | 0.628 | 0.358 | 0.427 | 0.53 |  | 0.69 | 0.649 | 0.758 | 0.527
17 | NCI-H1651 | 0.88 | 0.89 | 0.804 | 0.838 | 0.926 | 0.505 | 0.481 | 0.486 | 0.428 | 0.386
18 | NCI-H1666 | 0.764 | 0.809 | 0.73 | 0.824 | 0.858 | 0.915 | 0.849 | 0.715 | 0.839 | 0.803
19 | NCI-H1734 | 0.588 | 0.739 | 0.635 | 0.781 | 0.614 | 0.529 | 0.671 | 0.474 | 0.665 | 0.571

Row | Cell Line | relative viability (Venetoclax + Trametinib; first compound 0.01 µM) | relative viability (Venetoclax + Trametinib; first compound 0.03162 µM) | relative viability (Venetoclax + Trametinib; first compound 0.1 µM) | relative viability (Venetoclax + Trametinib; first compound 0.3162 µM) | relative viability (Venetoclax + Trametinib; first compound 1 µM) | relative viability (Venetoclax + AZD7762; first compound 0.01 µM) | relative viability (Venetoclax + AZD7762; first compound 0.03162 µM) | relative viability (Venetoclax + AZD7762; first compound 0.1 µM) | relative viability (Venetoclax + AZD7762; first compound 0.3162 µM) | relative viability (Venetoclax + AZD7762; first compound 1 µM)
20 | NCI-H1755 | 0.713 | 0.765 | 0.768 | 0.715 | 0.736 | 0.445 | 0.471 | 0.379 | 0.386 | 0.411
21 | NCI-H1792 | 0.456 | 0.405 | 0.485 | 0.498 | 0.439 | 0.58 | 0.698 | 0.703 | 0.608 | 0.565
22 | NCI-H1793 | 0.334 | 0.46 | 0.367 | 0.335 | 0.419 | 0.638 | 0.441 | 0.346 | 0.299 | 0.259
23 | NCI-H1915 | 0.253 | 0.319 | 0.295 | 0.318 | 0.299 | 0.657 | 0.658 | 0.655 | 0.695 | 0.611
24 | NCI-H1944 | 0.511 | 0.474 | 0.394 | 0.432 | 0.361 | 0.74 | 0.573 | 0.429 | 0.479 | 0.468
25 | NCI-H1975 | 0.256 | 0.388 | 0.319 | 0.347 | 0.3 | 0.737 | 0.709 | 0.672 | 0.822 | 0.67
26 | NCI-H1993 | 0.509 | 0.518 | 0.506 | 0.591 | 0.535 | 0.635 | 0.787 | 0.651 | 0.816 | 0.763
27 | NCI-H2085 | 0.45 | 0.56 | 0.416 | 0.547 | 0.511 | 0.802 | 1.02 | 0.924 | 0.962 | 0.916
28 | NCI-H2087 | 0.197 | 0.181 | 0.178 | 0.199 | 0.257 | 1.26 | 1.32 | 1.17 | 1.46 | 1.56
29 | NCI-H2126 | 0.544 | 0.618 | 0.538 | 0.566 | 0.521 | 1.06 | 1.01 | 0.932 | 1.02 | 1
30 | NCI-H2170 | 0.859 | 0.97 | 0.841 | 0.812 | 0.87 | 0.735 | 0.805 | 0.692 | 0.806 | 0.763
31 | NCI-H2342 | 0.77 | 0.762 | 0.979 | 0.839 | 0.819 | 0.734 | 0.75 | 0.491 | 0.388 | 0.53
32 | NCI-H2347 | 0.327 | 0.288 | 0.254 | 0.298 | 0.267 | 0.729 | 0.894 | 0.663 | 0.723 | 0.76
33 | NCI-H2405 | 0.769 | 0.603 | 0.584 | 0.646 | 0.591 | 0.628 | 0.722 | 0.744 | 0.748 | 0.657
34 | NCI-H3122 | 0.259 | 0.197 | 0.211 | 0.227 | 0.29 | 1.07 | 0.997 | 0.909 | 0.954 | 1.03
35 | PC-3 [JPC-3] | 0.656 | 0.685 | 0.678 | 0.683 | 0.666 | 0.787 | 0.828 | 0.89 | 0.836 | 0.744
36 | PC-14 | 0.679 | 0.726 | 0.726 | 0.642 | 0.645 | 0.346 | 0.361 | 0.315 | 0.413 | 0.301
37 | RERF-LC-KJ | 0.705 | 0.851 | 0.873 | 0.886 | 0.795 | 0.801 | 1.09 | 1.07 | 1.03 | 0.945
38 | SW 900 | 0.853 | 0.711 | 0.824 | 0.761 | 0.657 | 0.538 | 0.696 | 0.59 | 0.715 | 0.668
